The experiment concerns the target T1, Human DPP IV (Homo sapiens, UniProt P27487).
T1 construct: Human serum containing DPP-IV enzyme was diluted finally 9- to 20-fold with assay buffer; from tissue; host or cells: human serum
Briefly: In Vitro DPP-IV Inhibitory Effect Measurement Test. The experiment is classed as biochemical. Particulars: human serum containing DPP-IV enzyme; substrate Glycyl-L-Proline 4-Methyl-Coumaryl-7-Amide 10 to 100 μM; room temperature; fluorescence 360/460 nm; read-out: Human DPP IV inhibiting activity IC50. How it is done:
In Vitro DPP-IV Inhibitory Effect Measurement Test
Human serum containing DPP-IV enzyme was diluted finally 9- to 20-fold with assay buffer and added to a microassay plate. Each of solutions of each test compound having various concentrations was added thereto, followed by adding thereto a substrate (Glycyl-L-Proline 4-Methyl-Coumaryl-7-Amide, Peptide Laboratories Co., Ltd.) to a final concentration of 10 to 100 μM, and the reaction was carried out at room temperature. Acetic acid was added thereto to a final concentration of 0.5% to terminate the reaction, and the intensity of fluorescence at an excitation wavelength of 360 nm and a measuring wavelength of 460 nm was measured by the use of a fluorescent plate reader.

The results in this text go back to US7601728B2, “Bicyclic pyrrole derivatives” (Dainippon Sumitomo Pharma Co., Ltd., priority 2004, dated 2009).

Where a name gives a salt, the structure may show the parent alone.

T1 sequence (P27487 39-766 limits assumed): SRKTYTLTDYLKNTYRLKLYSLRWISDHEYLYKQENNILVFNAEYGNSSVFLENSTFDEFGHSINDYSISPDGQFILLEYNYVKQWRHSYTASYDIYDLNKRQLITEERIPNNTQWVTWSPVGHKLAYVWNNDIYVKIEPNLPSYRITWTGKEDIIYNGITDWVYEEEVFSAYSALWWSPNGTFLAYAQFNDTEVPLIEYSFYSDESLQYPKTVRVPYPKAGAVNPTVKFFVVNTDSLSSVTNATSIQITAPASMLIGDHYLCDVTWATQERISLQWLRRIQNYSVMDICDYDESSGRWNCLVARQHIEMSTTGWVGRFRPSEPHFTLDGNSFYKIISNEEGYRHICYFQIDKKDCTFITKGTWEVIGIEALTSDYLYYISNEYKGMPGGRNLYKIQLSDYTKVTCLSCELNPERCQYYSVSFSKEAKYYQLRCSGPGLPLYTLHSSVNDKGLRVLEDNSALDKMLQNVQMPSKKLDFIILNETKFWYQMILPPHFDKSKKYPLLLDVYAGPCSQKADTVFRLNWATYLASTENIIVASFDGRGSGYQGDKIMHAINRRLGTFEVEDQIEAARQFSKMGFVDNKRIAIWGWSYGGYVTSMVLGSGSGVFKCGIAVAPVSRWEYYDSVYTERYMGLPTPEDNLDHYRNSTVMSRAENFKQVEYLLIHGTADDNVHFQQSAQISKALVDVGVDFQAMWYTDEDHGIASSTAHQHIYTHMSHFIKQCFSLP

For the compound `Cn1c(=O)c2c(c(C(=O)N3CCOCC3)c(N3CCC[C@@H](N)C3)n2Cc2cc(F)ccc2Cl)n(C)c1=O` [Example 44], the IC50 (as a rule, the point on the concentration scale where inhibition reaches its midpoint) is 0.009 µM.

Regarding `Cn1c(=O)c2c(c(C(=O)NCC(O)CO)c(N3CCC[C@@H](N)C3)n2Cc2ccccc2Cl)n(C)c1=O` (stereo partly shown) [Example 32], the IC50 is 0.0075 µM. Under `CC(=O)c1c(N2CCC[C@@H](N)C2)n(Cc2ccccc2Cl)c2c(=O)n(C)c(=O)n(C)c12` [Example 61] stands 0.085 µM; under `Cn1c(Oc2ccccc2C(N)=O)nc2c(C#N)c(N3CCC[C@@H](N)C3)n(Cc3ccccc3Cl)c2c1=O` [Example 7, 2-{[6-(3-Aminopiperidin-1-yl)-5-(2-chlorobenzyl)-7-cyano-3-methyl-4-oxo-4,5-dihydro-3H-pyrrolo[3,2-d]pyrimidin-2-yl]oxy}benzamide hydrochloride], 0.06 µM; under `CN(C)C(=O)c1c(N2CCC[C@@H](N)C2)n(Cc2ccccc2Cl)c2c(=O)n(C)c(=O)n(C)c12` [Example 25], 0.0076 µM. Consider `CCOC(=O)c1c(N2CCC[C@@H](N)C2)n(Cc2ccccc2Cl)c2c(=O)n(C)c(=O)n(C)c12` [Example 24], for which the IC50 came out at 0.044 µM.

Consider `CC#CCn1c(N2CCC[C@@H](N)C2)cc2c1c(=O)n(C)c(=O)n2C` [Example 14], for which the IC50 was found to be 0.055 µM.

Take `Cn1c(=O)c2c(cc(N3CCC[C@@H](N)C3)n2Cc2ccccc2Cl)n(C)c1=O` [Example 5, 6-(3-Aminopiperidin-1-yl)-5-(2-chlorobenzyl)-1,3-dimethyl-1H-pyrrolo[3,2-d]pyrimidine-2,4(3H,5H)-dione hydrochloride]: the IC50 stood at 0.015 µM.

As to `CCOc1cccc(Oc2nc3c(C#N)c(N4CCC[C@@H](N)C4)n(Cc4ccccc4Cl)c3c(=O)n2C)c1` [Example 1, 6-[(3R)-3-Aminopiperidin-1-yl]-5-(2-chlorobenzyl)-2-(3-ethoxyphenoxy)-3-methyl-4-oxo-4,5-dihydro-3H-pyrrolo[3,2-d]pyrimidine-7-carbonitrile hydrochloride], the IC50 was 0.076 µM.

`COc1ccc(-c2c(N3CCC[C@@H](N)C3)n(Cc3ccccc3Cl)c3c(=O)n(C)c(=O)n(C)c23)cc1` [Example 62]: the IC50 worked out at 0.056 µM.

For the compound `Cn1c(=O)c2c(c(C(=O)NCC(F)(F)F)c(N3CCC[C@@H](N)C3)n2Cc2cc(F)ccc2Cl)n(C)c1=O` [Example 42], the IC50 came to 0.0057 µM. The figure for `Cn1c(=O)c2c(c(C(=O)NC3CCC3)c(N3CCC[C@@H](N)C3)n2Cc2cc(F)ccc2Cl)n(C)c1=O` [Example 40] is 0.0068 µM; for `Cn1c(=O)c2c(cc(N3CCC[C@@H](N)C3)n2Cc2cc(F)ccc2Cl)n(C)c1=O` [Example 6, 6-(3-Aminopiperidin-1-yl)-5-(2-chloro-5-fluorobenzyl)-1,3-dimethyl-1H-pyrrolo[3,2-d]pyrimidine-2,4(3H,5H)-dione hydrochloride] it is 0.0019 µM; for `COCc1c(N2CCC[C@@H](N)C2)n(Cc2ccccc2Cl)c2c(=O)n(C)c(=O)n(C)c12` [Example 56] it is 0.031 µM. Consider `Cn1c(O)nc2c(C#N)c(N3CCC[C@@H](N)C3)n(Cc3ccccc3Cl)c2c1=O` [Example 3, 6-[(3R)-3-Aminopiperidin-1-yl]-5-(2-chlorobenzyl)-2-hydroxy-3-methyl-4-oxo-4,5-dihydro-3H-pyrrolo[3,2-d]pyrimidine-7-carbonitrile hydrochloride], for which the IC50 was 0.026 µM. The figure for `COCCNC(=O)c1c(N2CCC[C@@H](N)C2)n(Cc2cc(F)ccc2Cl)c2c(=O)n(C)c(=O)n(C)c12` [Example 41] is 0.0041 µM; for `Cn1c(=O)n(CC(=O)c2ccccc2)c(=O)c2c1cc(N1CCC[C@@H](N)C1)n2Cc1cc(F)ccc1Cl` [Example 19] it is 0.0071 µM. In the case of `Cn1c(=O)c2c(c(C#N)c(N3CCC[C@@H](N)C3)n2Cc2ccccc2Cl)n(C)c1=O` [Example 2, 6-[(3R)-3-Aminopiperidin-1-yl]-5-(2-chlorobenzyl)-1,3-dimethyl-2,4-dioxo-2,3,4,5-tetrahydro-1H-pyrrolo[3,2-d]pyrimidine-7-carbonitrile hydrochloride], the IC50 worked out at 0.021 µM. For `Cn1c(=O)[nH]c(=O)c2c1cc(N1CCC[C@@H](N)C1)n2Cc1cc(F)ccc1Cl` [Example 20], the IC50 is 0.0043 µM. On to `Cn1c(S(C)(=O)=O)nc2c(C#N)c(N3CCC[C@@H](N)C3)n(Cc3ccccc3Cl)c2c1=O` [Example 4, 6-[(3R)-3-Aminopiperidin-1-yl]-5-(2-chlorobenzyl)-3-methyl-2-(methylsulfonyl)-4-oxo-4,5-dihydro-3H-pyrrolo[3,2-d]pyrimidine-7-carbonitrile hydrochloride], for which the IC50 amounted to 0.028 µM.

For `Cn1cnc2c(C(=O)N3CCOCC3)c(N3CCC[C@@H](N)C3)n(Cc3cc(F)ccc3Cl)c2c1=O` [Example 66], the concentration for half-maximal inhibition (IC50) came out at 0.0055 µM.

In the case of `Cn1c(=O)c2c(c(C#N)c(N3CCC[C@H](N)C3)n2Cc2cc(F)ccc2Cl)n(C)c1=O` [Example 70, 6-[(3S)-3-Aminopiperidin-1-yl]-5-(2-chloro-5-fluorobenzyl)-1,3-dimethyl-2,4-dioxo-2,3,4,5-tetrahydro-1H-pyrrolo[3,2-d]pyrimidine-7-carbonitrile hydrochloride], the IC50 stood at 3.8 µM.

For `Cn1c(=O)c2c(cc(N3CCC[C@@H](N)C3)n2Cc2ccccc2C#N)n(C)c1=O` [Example 8], the IC50 amounted to 0.0074 µM. Under `Cn1cnc2cc(N3CCC[C@@H](N)C3)n(Cc3cc(F)ccc3Cl)c2c1=O` [Example 64] stands 0.013 µM; under `CCOC(=O)c1c(N)c(C#N)c(N2CCC[C@@H](N)C2)n1Cc1ccccc1Cl` [Example 72, Ethyl 3-amino-5-[(3R)-3-aminopiperidin-1-yl]-1-(2-chlorobenzyl)-4-cyano-1H-pyrrole-2-carboxylate hydrochloride], 1.2 µM. As for `Cn1c(=O)c2c(c(C(=O)N3CCC(O)CC3)c(N3CCC[C@@H](N)C3)n2Cc2ccccc2Cl)n(C)c1=O` [Example 33], the IC50 came out at 0.012 µM. Regarding `Cn1c(=O)c2c(c(C(=O)N3CCCC3)c(N3CCC[C@@H](N)C3)n2Cc2ccccc2Cl)n(C)c1=O` [Example 27], the IC50 amounted to 0.0098 µM.

Turning to `Cn1c(=O)n(Cc2cc3ccccc3cn2)c(=O)c2c1cc(N1CCC[C@@H](N)C1)n2Cc1cc(F)ccc1Cl` [Example 18], the IC50 is 0.012 µM.
